Experimental data taken from patent US20040224910A1, “Recombinant nematode nicotinic receptor and uses” (priority 1999, published 2004).
Entries after “also recorded” stand apart in the source; their conditions may differ.

Molecular target: T1, heterotrimeric UNC-63, UNC-29, LEV-1 receptor (Caenorhabditis elegans, UniProt P48181+Q27218+Q9N587)
T1 construct: used to generate a full length cDNA clone by 3′ RACE on Marathon cDNA; expressed in transfected cells; host or cells: Xenopus laevis oocytes (nuclear injection of pMT3 cDNA constructs)
T1 sequence (P48181 27-493): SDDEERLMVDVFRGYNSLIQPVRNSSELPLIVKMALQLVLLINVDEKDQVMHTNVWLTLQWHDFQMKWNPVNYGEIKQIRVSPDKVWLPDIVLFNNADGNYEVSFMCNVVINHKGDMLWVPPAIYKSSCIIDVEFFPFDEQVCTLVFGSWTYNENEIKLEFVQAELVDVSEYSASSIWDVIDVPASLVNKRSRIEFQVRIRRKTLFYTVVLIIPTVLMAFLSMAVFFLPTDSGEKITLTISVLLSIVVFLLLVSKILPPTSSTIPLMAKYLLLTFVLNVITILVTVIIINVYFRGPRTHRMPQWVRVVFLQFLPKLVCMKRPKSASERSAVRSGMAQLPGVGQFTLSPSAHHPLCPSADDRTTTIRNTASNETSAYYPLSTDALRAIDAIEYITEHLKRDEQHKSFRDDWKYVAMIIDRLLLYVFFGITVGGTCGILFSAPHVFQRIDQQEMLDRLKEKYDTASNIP
T1 sequence (Q27218 32-507): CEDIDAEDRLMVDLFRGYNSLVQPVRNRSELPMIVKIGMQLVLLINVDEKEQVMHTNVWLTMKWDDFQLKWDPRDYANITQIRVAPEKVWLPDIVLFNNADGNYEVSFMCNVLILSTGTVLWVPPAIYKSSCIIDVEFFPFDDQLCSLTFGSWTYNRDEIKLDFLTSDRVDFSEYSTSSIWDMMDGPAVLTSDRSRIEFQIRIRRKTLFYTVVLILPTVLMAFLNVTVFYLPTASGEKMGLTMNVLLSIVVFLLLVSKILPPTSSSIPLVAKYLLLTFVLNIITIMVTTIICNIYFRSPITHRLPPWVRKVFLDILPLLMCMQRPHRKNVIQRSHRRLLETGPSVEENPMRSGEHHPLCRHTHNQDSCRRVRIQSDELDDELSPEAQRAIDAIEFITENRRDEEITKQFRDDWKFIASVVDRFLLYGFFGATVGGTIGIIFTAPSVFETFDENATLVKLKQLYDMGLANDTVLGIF
T1 sequence (Q9N587 24-502): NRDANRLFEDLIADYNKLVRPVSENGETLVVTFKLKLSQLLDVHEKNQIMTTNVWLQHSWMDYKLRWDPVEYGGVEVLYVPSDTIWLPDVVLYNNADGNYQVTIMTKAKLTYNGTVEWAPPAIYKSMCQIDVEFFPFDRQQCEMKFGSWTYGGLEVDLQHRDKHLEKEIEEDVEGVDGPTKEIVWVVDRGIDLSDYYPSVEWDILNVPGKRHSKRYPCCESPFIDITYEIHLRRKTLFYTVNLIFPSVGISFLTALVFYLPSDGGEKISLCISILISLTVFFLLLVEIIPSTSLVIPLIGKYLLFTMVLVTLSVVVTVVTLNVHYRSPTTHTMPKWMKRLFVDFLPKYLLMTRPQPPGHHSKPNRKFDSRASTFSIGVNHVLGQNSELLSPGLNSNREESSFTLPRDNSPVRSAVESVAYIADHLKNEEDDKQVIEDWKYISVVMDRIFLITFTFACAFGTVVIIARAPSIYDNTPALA
Experiment: Two-electrode voltage-clamp of recombinant nAChR expressed in Xenopus laevis oocytes
Assay type: cell-based, C. elegans
Details: for agonist activity on the expressed receptor: holding potential -100 mV
Protocol: Ovaries were surgically removed from anaesthetised mature female Xenopus laevis. The follicle layers were manually removed from healthy stage V and VI oocytes following a 15 min incubation with collagenase (type IA, 2 mg ml^−1) in a calcium-free version of standard oocyte saline. The composition of SOS was as follows (mM): NaCl 100, KCl 2, CaCl2 1.8, MgCl2 1 and HEPES 5; pH 7.6. In calcium-free saline, the CaCl2 was replaced by 1.8 mM BaCl2. […] The nucleus of each oocyte was injected with 20 nl of DNA (0.1 μg μl^−1). The injected oocytes were transferred to incubation medium composed of SOS supplemented with penicillin (100 units ml^−1), streptomycin (100 μg ml^−1), gentamycin (50 μg ml^−1) and 2.5 mM sodium pyruvate and placed at 4° C. for 30 min immediately after injection to enable recovery. Oocytes were maintained at 16° C. for 2-4 days prior to electrophysiological studies.
Oocytes were restrained with entomological pins in a Perspex chamber (80 μl volume) with a Sylgard base and perfused continuously (5 ml min^−1) with SOS using a gravity-fed system. Membrane currents were measured by the two-electrode voltage-clamp method, using 3M KCl filled electrodes (resistance=0.5-5 MΩ) and either a Geneclamp amplifier (Axon Instruments). The oocyte membrane potential was clamped at −100 mV. Signals were digitized by a TL-1 interface (Axon Instruments, U.S.A).

| SMILES | agonist activity on the expressed receptor (Xenopus oocytes) | block of the agonist action of levamisole (10 μM mecamylamine, Xenopus oocytes (FIG. 6)) | antagonism of ACh-induced currents (10 μM, Xenopus oocytes) |
| --- | --- | --- | --- |
| CC(=O)OCC[N+](C)(C)C.[Cl-] [ACh, Acetylcholine chloride] | full agonist | – | – |
| CNC1(C)C2CCC(C2)C1(C)C (centres unmarked) [Mecamylamine, mecamylamine] | – | blocked | effective antagonist |
| c1ccc([C@H]2CN3CCSC3=N2)cc1 [levamisole] | partial agonists; also recorded: partial agonist activity | – | – |
| CN1CCCC1c1cccnc1 (centres unmarked) [nicotine] | partial agonists; also recorded: partial agonist activity | – | – |
